One experiment concerns P2rx7+/+ mice. Kind of experiment: Automated tail suspension test (TST), LPS-induced depressive behavior. The class given is in vivo, mouse. To be noted: LPS 1 mg/kg i.p. 24 h before, antagonist 50 mg/kg i.p. 30 min before test. The protocol:
All experiments and treatments were performed during the light phase (7.00 AM–7.00 PM). The TST was conducted using an automated tail suspension device (BIO-TST2, Bioseb, France) in accordance with a previously described method. The device consisted of a single tail suspension module with three chambers, connected to a personal computer that recorded the activity of the animals during the test sessions. Three mice were individually suspended by the tail onto the hooks of the device using adhesive tape (distance from tip of tail was 1–2 cm). The measurements were automatically recorded within 5–10 seconds after placing the last animal into the chamber, and each measurement lasted 6 min. […] The threshold level was set at 6. To examine endotoxin-induced depressive behavior, the animals were subjected to bacterial lipopolysaccharide injection (LPS, serotype 055:B5, Sigma, St. Louis, […], USA, 1 mg/kg i.p.) at 24 h before a single 6-min test period. Brilliant blue G (BBG, 50 mg/kg i.p.) or an equal volume of saline was injected at 30 min before the test period. The time of immobility was expressed in sec. The P2rx7+/+ and P2rx7−/− mice were subjected to alternation testing. […] The data of these animals were excluded from the calculations during the post hoc analysis.

Experiment [1] has as its system BDNF level in hippocampal slices. Description: BDNF protein assay (ELISA), in vitro study in hippocampal slices. The class given is cell-based, mouse. To be noted: BBG 100 nM. As for the experimental part: The P2rx7 wild type and knockout mice were anesthetized under light CO2 inhalation and decapitated. The hippocampus was dissected in ice-cold Krebs solution saturated with 95% O2 and 5% CO2, sectioned (400 µm thick slices) using a McIlwain tissue chopper and incubated in 2 ml of modified Krebs solution in the presence of 1 ml Hibernate medium, ascorbic acid (300 µM) and Na2EDTA (30 µM) for 60 min. The medium was bubbled continuously with 95% O2 and 5% CO2 and maintained at 37°C. The P2rx7 agonist, BzATP, was added to the incubation solution for 30 min, whereas BBG was applied 15 min before BzATP application. RO-256981, 6-cyano-7-nitroquinoxaline-2,3-dione (CNQX) and 3-Chloro-4-fluoro-N-[4[[2(phenylcarbonyl)hydrazino]carbonyl]benzyl] benzenesulfonamide (TCN-201) were applied for 15 min, while MCPG was administered for 30 min. The group I metabotropic glutamate receptor agonist, dihydroxyphenylglycine (DHPG), was administered for 10 min. The DHPG, MCPG, and RO-256981 dosages were chosen based on previous studies, [47], [48]. In the experiments with BzATP, Mg^2+ was omitted from the incubation solution. The hippocampal slices were collected, frozen on dry ice and stored at −70°C until further investigation. Each experimental group contained 3–4 mice.
At the time of analysis, the samples were removed from the freezer and weighed. The BDNF extraction procedure was performed in accordance with the methods of a previous study. For the BDNF assays, 2 ml lysis buffer (100 mM PIPES, pH 7, 500 mM NaCl, 0.2% Triton X-100, 0.1% NaN3, 2% BSA, 2 mM EDTA, 200 µM PMSF, 10 µg/mL aprotinin, 1 µg/mL leupeptin, and 0.5 mM sodium vanadate) was added to each sample, and the hippocampus was sonicated at power level 2 using pulses at 1 sec intervals for 10–15 sec. Subsequently, the samples were centrifuged at 16,000 × g for 30 min at 4°C. 100 µl aliquots of the resulting supernatants were removed and diluted with 400 µl of DPBS buffer (137 mM NaCl, 2.68 mM KCl, 1.47 mM KH2PO4, 8.1 mM Na2HPO4 (pH 7.35), 0.9 mM CaCl2·H2O, and 0.5 mM MgCl2·H2O). The supernatants were collected and stored at −70?C until further analysis. For the total free BDNF measurement, the samples were acid treated with 1 µl of 1 N HCl for each 50 µl of diluted samples to decrease the pH to 2.5, followed by incubation at room temperature for 15 min. The samples were neutralized with 1 µl of 1 N NaOH for each 50 µl of diluted samples. The levels of BDNF (both precursor and mature forms) expression were evaluated using an enzyme-linked immunosorbent assay (ELISA) kit and a BDNF Emax ImmunoAssay System (Promega Corporation, Madison, WI, USA), which is specific for mouse BDNF protein, according to the manufacturer’s instructions. The BDNF levels were calculated by plotting the optical density (OD) of each sample against the standard curve. A seven-point standard curve using two-fold serial dilutions in Reagent Diluent (according the manufacturer’s instructions) and a high standard of 500 pg/ml were used for the determination of BDNF levels. The assay detection limits were <15 pg/ml. Absorbance was measured at 450 nm using a Perkin-Elmer Victor 3V 1420 Multilabel Counter.
A general note: In an ELISA, binding on a coated surface is turned into a signal by an enzyme label.

From PMC3689833, “Neurochemical Changes in the Mouse Hippocampus Underlying the Antidepressant Effect of Genetic Deletion of P2X7 Receptors” (PLoS ONE, 2013) come the findings set out here.

Structures are written as SMILES.

`CCOc1ccc(Nc2ccc(/C(=C3C=C/C(=[N+](/CC)Cc4cccc(S(=O)(=O)[O-])c4)C=C/3C)c3ccc(N(CC)Cc4cccc(S(=O)(=O)O)c4)cc3C)cc2)cc1` [BBG, Brilliant blue G]: in the experiment on P2rx7+/+ mice, the “LPS-induced depressive behavior in TST (immobility)” value is reported as “significantly attenuated”. Further, in experiment [1] (P2rx7+/+ slices, + BzATP 100 µM, Mg2+-free, RO-256981 3 µM, MCPG 200 µM, DHPG 100 µM), the “BDNF level in hippocampal slices in the presence of BzATP” value was 77.87 ± 4.24 pg/mL. Further, the “BDNF level in hippocampal slices” value in experiment [1] (P2rx7+/+ slices) was 118.22 ± 1.59 pg/mL; in experiment [1] (P2rx7−/− slices), 60.31 ± 0.31 pg/mL. Further, the “increase of basal BDNF level” value in experiment [1] (P2rx7+/+ slices) turned out to be 656%; in experiment [1] (P2rx7−/− slices), 272.7%.
